Experimental data taken from publication PMC8116058, “De novo macrocyclic peptides dissect energy coupling of a heterodimeric ABC transporter by multimode allosteric inhibition” (eLife, 2021).
Positions of bridges follow the written chain, without caps; N, C: chain ends. Non-standard residues stand in square brackets, D forms with d. Residues, ends and D or L forms follow the SMILES beside them. *: point of attachment. 5FAM = O=C1OC2(c3ccc(O)cc3Oc3cc(O)ccc32)c2ccc(C(=O)*)cc21; βAla = NCCC(=O)O

Experiments:
wild-type TmrAB = test: Nucleotide occlusion, wild-type TmrAB; format: biochemical, Thermus thermophilus; conditions: 5 min 45°C; for Effect on nucleotide occlusion, wild-type TmrAB: CP^F 4 µM; for Occluded nucleotides, ADP / Occluded nucleotides, ATP: TmrAB 2 µM, CP^F 4 µM or orthovanadate 1 mM, ATP 1 mM traced with [α32P]-ATP, normalized to vanadate-trapped state
Procedure: (§1) Figure 5. […] (A, B) CP6^F (A) or CP13^F (B, 50 nM each) were incubated with increasing concentrations of detergent-solubilized inward-facing TmrAB (in the absence of Mg-ATP) or outward-facing TmrA^EQB, which was trapped with Mg-ATP (1 mM) for 5 min at 45°C as described ([Hofmann et al., 2019]; [Stefan et al., 2020]). Immediately after, the fluorescence anisotropy was assayed at λex/em = 485/520 nm. The difference in fluorescence polarization was normalized to free and fully bound CP^F. Data were fitted by a one-site binding model. […] TmrAB (2 µM each) were mixed with CP^Fs (4 µM), ATP (1 mM, traced with [α^32P]-ATP), and MgCl2 (5 mM) for 5 min at 4°C or 45°C. Cold ATP (10 mM) was added, and freely exchangeable nucleotides were removed by rapid gel filtration. Occluded nucleotides were analyzed by thin layer chromatography and autoradiography. Representative radiograms for independent triplicates are shown. (D) Stably occluded nucleotides, [α^32P]-ATP and [α^32P]-ADP, were quantified by autoradiography. Data were normalized to the vanadate-trapped state. In (A, B, D), mean values ± SD (n = 3) are shown. Figure 5—source data 1. Source Data for Figure 5. Figure 5—figure supplement 1. […] (A) CP^Fs (50 nM each) were incubated with increasing concentrations of detergent-solubilized IF TmrAB in the inward-facing (IF) conformation (absence of Mg-ATP) or TmrA^EQB populated in the outward-facing (OF) conformation, which was trapped in the OF conformation by Mg-ATP (1 mM) after 5 min incubation at 45°C. The difference in fluorescence polarization was normalized to unbound (0%) and 100% bound CP^F. Data were fitted by a one-site binding model. Fluorescence anisotropy was recorded at λex/em = 485/520 nm. […] TmrA^EQB (2 µM) were incubated in the absence and presence of CP^Fs (4 µM each), ATP (1 mM, traced with [α^32P]-ATP), and MgCl2 (5 mM) for 5 min at 4°C or 45°C. Cold ATP (10 mM) was added, and free nucleotides were removed by rapid gel filtration. Occluded nucleotides were analyzed by thin layer chromatography and autoradiography. Representative radiograms for independent triplicates are shown. […] Figure 5—figure supplement 1—source data 1.
We also examined the impact of CP^Fs on the IF-to-OF transition of wild-type TmrAB induced by ATP binding through nucleotide occlusion (stable trapping) as the readout. We induced the IF-to-OF switch with radiotraced [α^32P]-ATP for 5 min at 45°C in the presence and absence of CPs and removed unbound nucleotides by rapid gel filtration. Subsequently, the occluded nucleotides were identified and quantified by thin layer chromatography and autoradiography (Figure 5C, D).
Detergent-solubilized TmrAB (2 µM) were incubated with ATP (1 mM) traced with [α^32P]-ATP (Hartmann Analytic), MgCl2 (5 mM), CP^Fs (4 µM), or orthovanadate (1 mM) for 5 min at 45°C. Cold ATP (10 mM) was added, and unbound nucleotides were removed by rapid gel filtration (Bio-Spin columns P-30, Bio-Rad). ATP (10 mM) was added, and samples were spotted onto polyethyleneimine cellulose plates (Merck Millipore). Thin-layer chromatography was performed using 0.75 M KH2PO4 pH 3.4.

[1] = system: detergent-solubilized IF or OF TmrA^EQB; test: CP^F anisotropy with IF or OF TmrA^EQB under nucleotide conditions; format: binding, Thermus thermophilus; conditions: for Binding under nucleotide conditions: absence and presence of ATP and ADP
Excerpt: (§2) ABC transport complexes such as TmrAB run through multiple conformational states along the ATP hydrolysis cycle to drive unidirectional substrate transport ([Hofmann et al., 2019]; [Stefan et al., 2020]). Within the substrate translocation cycle, two major conformers, inward-facing (IF) and outward-facing (OF), were identified. To investigate whether CPs favor one of these conformers, we probed the binding of CP^Fs by fluorescence polarization analysis. […] In the latter case, the interaction studies were performed immediately after the IF-to-OF switch by incubation with ATP for 5 min at 45°C. To exclude an OF-to-IF return (τ1/2 of 25 min) ([Stefan et al., 2020]), the fluorescence anisotropy was recorded only within the first minute of incubation.
as §1
To determine equilibrium binding constants, CP^Fs (50 nM) were incubated with increasing concentrations of TmrAB-containing or empty liposomes. To probe the conformational selectivity, CP^Fs (50 nM) were mixed with detergent-solubilized IF TmrAB or OF TmrA^EQB. Before, OF TmrA^EQB was nucleotide-trapped by incubation with ATP (1 mM) and MgCl2 (3 mM) in the absence of CP^Fs for 5 min at 45°C.

[2] = target: outward-facing TmrA^EQB trapped with Mg-ATP (Thermus thermophilus, UniProt Q72J04+Q72J05, E523Q); test: Conformation-specific binding by fluorescence anisotropy, OF conformer; conditions: fluorescence polarization, IF TmrAB vs ATP-trapped OF TmrA^EQB
Excerpt: as §2
Figure 5. […] Immediately after, the fluorescence anisotropy was assayed at λex/em = 485/520 nm. The difference in fluorescence polarization was normalized to free and fully bound CP^F. Data were fitted by a one-site binding model. […] Occluded nucleotides were analyzed by thin layer chromatography and autoradiography. […] (D) Stably occluded nucleotides, [α^32P]-ATP and [α^32P]-ADP, were quantified by autoradiography. […] The difference in fluorescence polarization was normalized to unbound (0%) and 100% bound CP^F. Data were fitted by a one-site binding model. Fluorescence anisotropy was recorded at λex/em = 485/520 nm. […]

[3] = TmrAB, 4 °C, CP^F 50 nM, TmrA^EQB 150 nM (CP6^F), 170 nM (CP12^F), 50 nM (CP13^F), 120 nM (CP14^F)
[4] = TmrAB, 45 °C, no nucleotide, CP^F 50 nM, TmrA^EQB 50-170 nM
[5] = TmrAB, ADP, 45 °C, CP^F 50 nM, TmrA^EQB 50-170 nM
[6] = TmrAB, ATP, 45 °C (OF), CP^F 50 nM, TmrA^EQB 50-170 nM
[7] = listed as 4 °C: CP^F 50 nM without TmrAB

SMILES | Effect on nucleotide occlusion, wild-type TmrAB (wild-type TmrAB) | Occluded nucleotides, ADP (wild-type TmrAB) [%] | Occluded nucleotides, ATP (wild-type TmrAB) [%] | Bound CP^F, fluorescence anisotropy [1, 3] | Bound CP^F, fluorescence anisotropy [1, 4] | Bound CP^F, fluorescence anisotropy [1, 5] | Bound CP^F, fluorescence anisotropy [1, 6] | Binding under nucleotide conditions [1] | Bound CP^F, fluorescence anisotropy [1, 7] | Conformational preference of binding, IF vs OF [2]
CC[C@H](C)[C@@H]1NC(=O)[C@H]([C@@H](C)O)NC(=O)[C@H](CC(C)C)NC(=O)[C@H](Cc2c[nH]c3ccccc23)NC(=O)[C@H](Cc2ccccc2)NC(=O)[C@H](CC(N)=O)NC(=O)[C@H](CCC(=O)O)NC(=O)[C@H](CC(C)C)NC(=O)[C@H](CS)NC(=O)[C@H](Cc2c[nH]cn2)NC(=O)[C@H](CO)NC(=O)[C@@H](Cc2ccc(O)cc2)NC(=O)CSC[C@@H](C(=O)NCC(=O)N[C@@H](CO)C(=O)NCCC(=O)NCCC(=O)N[C@@H](CCCNC(=N)N)C(=O)N[C@@H](CCCCNC(=O)c2ccc3c(c2)C(=O)OC32c3ccc(O)cc3Oc3cc(O)ccc32)C(N)=O)NC(=O)[C@H](CC(C)C)NC1=O [CP6] ({CH2CO}-[dY]SHCLENFWLTILCGS[βAla][βAla]RK(5FAM)-NH2; thioether N-14) | nucleotide occlusion was completely abolished | 2.66 | 6.76 | 0.143 | 0.132 | 0.129 | 0.050 | preferentially bind under conditions where IF TmrAB is exclusively populated | 0.019 | 
CC(C)[C@@H]1NC(=O)[C@H](Cc2ccccc2)NC(=O)[C@@H]2CCCN2C(=O)[C@H](CC(N)=O)NC(=O)[C@H](Cc2c[nH]c3ccccc23)NC(=O)[C@H](C(C)C)NC(=O)[C@H](Cc2ccc(O)cc2)NC(=O)[C@H](Cc2ccccc2)NC(=O)[C@@H](Cc2ccc(O)cc2)NC(=O)CSC[C@@H](C(=O)NCC(=O)N[C@@H](CO)C(=O)NCCC(=O)NCCC(=O)N[C@@H](CCCNC(=N)N)C(=O)N[C@@H](CCCCNC(=O)c2ccc3c(c2)C(=O)OC32c3ccc(O)cc3Oc3cc(O)ccc32)C(N)=O)NC(=O)[C@H](CCCCN)NC(=O)[C@H](Cc2ccccc2)NC1=O [CP14] ({CH2CO}-[dY]FYVWNPFVFKCGS[βAla][βAla]RK(5FAM)-NH2; thioether N-12; C-terminus assumed) | promoted stable ATP occlusion | 8.19 | 88.51 | 0.134 | 0.132 | 0.131 | 0.127 | bind in the absence and presence of ATP and ADP | 0.023 | preference for the OF conformer
CC(C)C[C@@H]1NC(=O)[C@H](Cc2ccccc2)NC(=O)CNC(=O)[C@H](CO)NC(=O)[C@H](Cc2ccccc2)NC(=O)[C@H](CC(=O)O)NC(=O)[C@@H]2CCCN2C(=O)[C@H]([C@@H](C)O)NC(=O)[C@@H](Cc2ccc(O)cc2)NC(=O)CSC[C@@H](C(=O)NCC(=O)N[C@@H](CO)C(=O)NCCC(=O)NCCC(=O)N[C@@H](CCCNC(=N)N)C(=O)N[C@@H](CCCCNC(=O)c2ccc3c(c2)C(=O)OC32c3ccc(O)cc3Oc3cc(O)ccc32)C(N)=O)NC(=O)[C@H](C)NC(=O)[C@H](CC(N)=O)NC(=O)[C@H](CCCNC(=N)N)NC(=O)[C@H](CC(C)C)NC(=O)[C@H](Cc2ccccc2)NC(=O)[C@H](C)NC1=O [CP12] ({CH2CO}-[dY]TPDFSGFLAFLRNACGS[βAla][βAla]RK(5FAM)-NH2; thioether N-16) | nucleotide occlusion was completely abolished | 3.67 | 7.52 | 0.127 | 0.130 | 0.122 | 0.069 | preferentially bind under conditions where IF TmrAB is exclusively populated | 0.023 | 
CC[C@H](C)[C@@H]1NC(=O)[C@H](Cc2c[nH]c3ccccc23)NC(=O)[C@H](CC(N)=O)NC(=O)[C@H](C)NC(=O)[C@H](CO)NC(=O)[C@@H]2CCCN2C(=O)[C@H](CC(=O)O)NC(=O)[C@@H](Cc2ccc(O)cc2)NC(=O)CSC[C@@H](C(=O)NCC(=O)N[C@@H](CO)C(=O)NCCC(=O)NCCC(=O)N[C@@H](CCCNC(=N)N)C(=O)N[C@@H](CCCCNC(=O)c2ccc3c(c2)C(=O)OC32c3ccc(O)cc3Oc3cc(O)ccc32)C(N)=O)NC(=O)[C@H]([C@@H](C)O)NC(=O)[C@H](CC(C)C)NC(=O)[C@H](CC(C)C)NC(=O)[C@H](C(C)C)NC(=O)[C@H](CC(C)C)NC1=O [CP13] ({CH2CO}-[dY]DPSANWILVLLTCGS[βAla][βAla]RK(5FAM)-NH2; thioether N-14; C-terminus assumed) | promoted stable ATP occlusion | 10.47 | 55.84 | 0.055 | 0.051 | 0.050 | 0.048 | bind in the absence and presence of ATP and ADP | 0.023 | preference for the OF conformer
